≈ marks a conversion by molar mass, not a printed value. Read-outs that look alike come from different tables or passages of the source.
Assays:
Type in all cases: cell-based
Serratia marcescens = assay: MIC by NCCLS broth microdilution, 1100 Japanese clinical isolates 1997-1998
[1] = tested on: Streptococcus pneumoniae and Haemophilus influenzae; assay: MIC by broth microdilution (NCCLS), all isolates pooled
Proteus mirabilis = assay: MIC by NCCLS broth microdilution, 1100 Japanese clinical isolates 1997-1998
Pseudomonas aeruginosa = assay: MIC by agar dilution (NCCLS), 322 nosocomial Gram negative isolates, Athens 1998; details: n = 57 isolates
Morganella morganii = assay: MIC by NCCLS broth microdilution, 1100 Japanese clinical isolates 1997-1998; details: Morganella morganii (n=40)
Streptococcus pneumoniae [2] = assay: MIC by E-test (broth microdilution for gemifloxacin), 107 pneumococcal carrier isolates, Athens 1998; details: E-test; for MIC Range: in µg/mL (unit assumed); for MIC50 / MIC90: Streptococcus pneumoniae; for MIC50: read-out: MIC50; for MIC90: read-out: MIC90
Protocol: Susceptibility testing was performed by agar dilution or epsilometer method (E-test), as recommended by the NCCLS. […] The susceptibility profiles of the strains were assessed using the Epsilometer method (E-test). The isolates were subdivided into two groups according to their penicillin susceptibility patterns (penicillin-susceptible and penicillin-intermediate.

Enterococcus faecium = assay: MIC by agar macrodilution (NCCLS), 373 Gram positive isolates, Athens 1998
Streptococcus pneumoniae [3] = assay: MIC by agar dilution (NCCLS), 411 isolates Buenos Aires 1998-99; details: for MIC / MIC90: Streptococcus pneumoniae; for MIC90: read-out: MIC90
Staphylococcus aureus = assay: MIC by agar macrodilution (NCCLS), 373 Gram positive isolates, Athens 1998; details: Methicillin-susceptible Staphylococcus aureus (n = 85)
Streptococcus pneumoniae [4] = assay: MIC by broth microdilution (NCCLS), dried MicroScan panels, clinical isolates 1998-1999; details: for MIC90: Streptococcus pneumoniae
Klebsiella pneumoniae [5] = assay: MIC by NCCLS reference broth microdilution, 450 respiratory tract pathogens; details: for MIC50 / MIC90: Klebsiella pneumoniae
Klebsiella pneumoniae [6] = assay: MIC by agar dilution (NCCLS), 322 nosocomial Gram negative isolates, Athens 1998; details: n = 56 isolates
Haemophilus influenzae = assay: MIC by broth microdilution (NCCLS), dried MicroScan panels, clinical isolates 1998-1999; details: for MIC90: Haemophilus influenzae
Enterococcus faecalis = assay: MIC by agar macrodilution (NCCLS), 373 Gram positive isolates, Athens 1998
[7] = Penicillin-intermediate S. pneumoniae (n = 24)
[8] = Penicillin-susceptible S. pneumoniae (n = 107)
[9] = Streptococcus pneumoniae (n = 90)
[10] = Streptococcus pneumoniae (302 isolates)
[11] = extended spectrum β-lactamase negative (n = 30)
[12] = extended spectrum β-lactamase positive (n = 20)
[13] = Haemophilus influenzae (300 isolates)

CO/N=C1\CN(c2nc3c(cc2F)c(=O)c(C(=O)O)cn3C2CC2)CC1CN (racemic) [Gemifloxacin, (R,S)-7-(3-aminomethyl-4-methoxyiminopyrrolidin-1-yl)-1-cyclopropyl-6-fluoro-4-oxo-1,4-dihydro-1,8-naphthyridine-3-carboxylic acid]
MIC50 (Serratia marcescens; Serratia marcescens): 0.125 µg/mL (≈ 0.321 µM)
MIC90 (Serratia marcescens; Serratia marcescens (n=30)): 0.5 µg/mL (≈ 1.28 µM)
MIC Range (Serratia marcescens; Serratia marcescens (n=30)): 0.063 to 128 µg/mL
concentration at which all microorganisms were inhibited ([1]; 380 isolates (235 S. pneumoniae, 145 H. influenzae)): 0.06 µg/mL
concentration at which all isolates were inhibited ([1]; All 602 isolates): 0.12 µg/mL
MIC90 ([1]; all (380) isolates tested (235 S. pneumoniae, 145 H. influenzae)): 0.03 µg/mL (≈ 0.077 µM)
MIC90 ([1]; all isolates tested (602)): 0.06 µg/mL (≈ 0.154 µM)
MIC50 (Proteus mirabilis; Proteus mirabilis): 0.125 µg/mL (≈ 0.321 µM)
MIC Range (Proteus mirabilis; Proteus mirabilis (n=30)): 0.063 to 16 µg/mL
MIC90 (Proteus mirabilis; Proteus mirabilis (n=30), read-out: MIC90): 0.25 µg/mL (≈ 0.642 µM)
MIC50 (Pseudomonas aeruginosa): 1 µg/mL (≈ 2.57 µM)
MIC90 (Pseudomonas aeruginosa): > 64 µg/mL
MIC Range (Morganella morganii): 0.016 to 16 µg/mL
MIC50 (Morganella morganii; read-out: MIC50): 0.063 µg/mL (≈ 0.162 µM)
MIC90 (Morganella morganii; read-out: MIC90): 0.25 µg/mL (≈ 0.642 µM)
MIC Range (Streptococcus pneumoniae [2]; [7]): 0.004-0.125
MIC Range (Streptococcus pneumoniae [2]; [8]): 0.002-0.19
MIC50 (Streptococcus pneumoniae [2]; [7]): 0.064 µg/mL (≈ 0.164 µM)
MIC90 (Streptococcus pneumoniae [2]; [7]): 0.23 µg/mL (≈ 0.591 µM)
MIC50 (Streptococcus pneumoniae [2]; [8]): 0.032 µg/mL (≈ 0.0822 µM)
MIC90 (Streptococcus pneumoniae [2]; [8]): 0.064 µg/mL (≈ 0.164 µM)
MIC distribution (µg/ml) 0.03 (Enterococcus faecium): 0
MIC distribution (µg/ml) 0.06 (Enterococcus faecium): 1
MIC distribution (µg/ml) 0.125 (Enterococcus faecium): 4
MIC distribution (µg/ml) 0.25 (Enterococcus faecium): 0
MIC distribution (µg/ml) 0.5 (Enterococcus faecium): 4
MIC distribution (µg/ml) 1 (Enterococcus faecium): 0
MIC distribution (µg/ml) 2 (Enterococcus faecium): 0
MIC distribution (µg/ml) 4 (Enterococcus faecium): 2
MIC distribution (µg/ml) 16 (Enterococcus faecium): 3
MIC distribution (µg/ml) ≤0.015 (Enterococcus faecium): 0
MIC distribution (µg/ml) ≥32 (Enterococcus faecium): 0
MIC50 (Enterococcus faecium; Enterococcus faecium, n = 14 isolates, read-out: MIC50): 0.25 µg/mL (≈ 0.642 µM)
MIC90 (Enterococcus faecium; Enterococcus faecium, n = 14 isolates, read-out: MIC90): 16 µg/mL (≈ 41.1 µM)
MIC Range (Enterococcus faecium; n = 14 isolates): 0.06 to 16 µg/mL
MIC distribution (µg/ml) 8 (Enterococcus faecium; number of isolates at MIC 8 µg/ml, n = 14): 8
MIC (Streptococcus pneumoniae [3]): 0.125 µg/mL (≈ 0.321 µM)
MIC Range (Streptococcus pneumoniae [3]; [9]): ≤0.004 to 0.125 µg/mL
MIC (Streptococcus pneumoniae [3]; Ciprofloxacin-resistant S. pneumoniae, Strain 1, read-out: MIC): 0.03 µg/mL (≈ 0.077 µM)
MIC (Streptococcus pneumoniae [3]; Ciprofloxacin-resistant S. pneumoniae, Strain 2, read-out: MIC): 0.06 µg/mL (≈ 0.154 µM)
MIC (Streptococcus pneumoniae [3]; Ciprofloxacin-resistant S. pneumoniae, Strain 4, read-out: MIC): 0.06 µg/mL (≈ 0.154 µM)
MIC90 (Streptococcus pneumoniae [3]; S. pneumoniae, Penicillin intermediate (n = 17)): 0.03 µg/mL (≈ 0.077 µM)
MIC90 (Streptococcus pneumoniae [3]; S. pneumoniae, Penicillin resistant (n = 4)): 0.03 µg/mL (≈ 0.077 µM)
MIC90 (Streptococcus pneumoniae [3]; S. pneumoniae, Penicillin susceptible (n = 69)): 0.03 µg/mL (≈ 0.077 µM)
MIC90 (Streptococcus pneumoniae [3]; [9]): 0.03 µg/mL (≈ 0.077 µM)
MIC Range (Staphylococcus aureus): ≤0.03 to 4 µg/mL
MIC50 (Staphylococcus aureus; read-out: MIC50): 0.06 µg/mL (≈ 0.154 µM)
MIC90 (Staphylococcus aureus; read-out: MIC90): 0.125 µg/mL (≈ 0.321 µM)
more active than grepafloxacin (Streptococcus pneumoniae [4]; S. pneumoniae): two-fold
more active than levofloxacin (Streptococcus pneumoniae [4]; S. pneumoniae): 16 fold
more active than trovafloxacin (Streptococcus pneumoniae [4]; S. pneumoniae): four-fold
MIC50 (Streptococcus pneumoniae [4]; [10]): 0.03 µg/mL (≈ 0.077 µM)
MIC Range (Streptococcus pneumoniae [4]; [10]): ≤0.0015 to 0.12 µg/mL
MIC90 (Streptococcus pneumoniae [4]; Erythromycin-resistant (86)): 0.03 µg/mL (≈ 0.077 µM)
MIC90 (Streptococcus pneumoniae [4]; Erythromycin-sensitive (216)): 0.06 µg/mL (≈ 0.154 µM)
MIC90 (Streptococcus pneumoniae [4]; Penicillin-intermediate (124)): 0.03 µg/mL (≈ 0.077 µM)
MIC90 (Streptococcus pneumoniae [4]; Penicillin-resistant (80)): 0.06 µg/mL (≈ 0.154 µM)
MIC90 (Streptococcus pneumoniae [4]; Penicillin-sensitive (98)): 0.06 µg/mL (≈ 0.154 µM)
MIC90 (Streptococcus pneumoniae [4]; [10]): 0.06 µg/mL (≈ 0.154 µM)
MIC Range (Klebsiella pneumoniae [5]; Klebsiella pneumoniae (n = 50)): ≤0.0075 to 1 µg/mL
MIC50 (Klebsiella pneumoniae [5]; Klebsiella pneumoniae (n = 50)): 0.03 µg/mL (≈ 0.077 µM)
MIC90 (Klebsiella pneumoniae [5]; Klebsiella pneumoniae (n = 50)): 0.25 µg/mL (≈ 0.642 µM)
MIC50 (Klebsiella pneumoniae [5]; [11]): 0.015 µg/mL (≈ 0.0385 µM)
MIC90 (Klebsiella pneumoniae [5]; [11]): 0.06 µg/mL (≈ 0.154 µM)
MIC50 (Klebsiella pneumoniae [5]; [12]): 0.25 µg/mL (≈ 0.642 µM)
MIC90 (Klebsiella pneumoniae [5]; [12]): 0.5 µg/mL (≈ 1.28 µM)
MIC Range (Klebsiella pneumoniae [5]; [11]): ≤0.0075 to 0.12 µg/mL
MIC Range (Klebsiella pneumoniae [5]; [12]): 0.03 to 1 µg/mL
MIC50 (Klebsiella pneumoniae [6]; Klebsiella pneumoniae): 0.06 µg/mL (≈ 0.154 µM)
MIC90 (Klebsiella pneumoniae [6]; Klebsiella pneumoniae): 0.5 µg/mL (≈ 1.28 µM)
MIC Range (Klebsiella pneumoniae [6]): ≤0.03 to 4 µg/mL
activity superior to that of levofloxacin (Haemophilus influenzae; H. influenzae): four-fold
MIC50 (Haemophilus influenzae; [13]): 0.004 µg/mL (≈ 0.0103 µM)
MIC Range (Haemophilus influenzae; [13]): ≤0.0015 to 0.12 µg/mL
MIC90 (Haemophilus influenzae; [13]): 0.008 µg/mL (≈ 0.0205 µM)
MIC90 (Haemophilus influenzae; β-lactamase negative (234)): 0.008 µg/mL (≈ 0.0205 µM)
MIC90 (Haemophilus influenzae; β-lactamase positive (66)): 0.03 µg/mL (≈ 0.077 µM)
MIC distribution (µg/ml) 0.03 (Enterococcus faecalis): 2
MIC distribution (µg/ml) 0.06 (Enterococcus faecalis): 2
MIC distribution (µg/ml) 0.125 (Enterococcus faecalis): 24
MIC distribution (µg/ml) 0.25 (Enterococcus faecalis): 22
MIC distribution (µg/ml) 1 (Enterococcus faecalis): 2
MIC distribution (µg/ml) 2 (Enterococcus faecalis): 1
MIC distribution (µg/ml) 4 (Enterococcus faecalis): 5
MIC distribution (µg/ml) 8 (Enterococcus faecalis): 9
MIC distribution (µg/ml) 16 (Enterococcus faecalis): 5
MIC distribution (µg/ml) ≤0.015 (Enterococcus faecalis): 0
MIC distribution (µg/ml) ≥32 (Enterococcus faecalis): 4
MIC50 (Enterococcus faecalis; Enterococcus faecalis, n = 81 isolates, read-out: MIC50): 0.25 µg/mL (≈ 0.642 µM)
MIC90 (Enterococcus faecalis; Enterococcus faecalis, n = 81 isolates, read-out: MIC90): 16 µg/mL (≈ 41.1 µM)
MIC distribution (µg/ml) 0.5 (Enterococcus faecalis; number of isolates at MIC 0.5 µg/ml, n = 81): 5

— patent publication EP1561465A2, “Methods of use of fluoroquinolone compounds against bacteria” (LG Life Sciences, Ltd., priority 1999, dated 2001)
